Test results reported in patent US20150352108A1, “AMINO-PYRIMIDINE COMPOUNDS AS INHIBITORS OF TBK1 AND/OR IKK EPSILON” (Alzheimer's Institute of America, priority 2009, published 2015).
Where two headings read alike, the source gives them in different places.

How the values were obtained:
IKKε = molecular target: T1, IKKε (Homo sapiens, UniProt Q14164); assay: In-vitro IKKε kinase assay ([γ33]ATP filter-plate); format: biochemical
T1 construct: His-tag; made in house; host or cells: Sf9 insect cells
T1 sequence (Q14164 1-716): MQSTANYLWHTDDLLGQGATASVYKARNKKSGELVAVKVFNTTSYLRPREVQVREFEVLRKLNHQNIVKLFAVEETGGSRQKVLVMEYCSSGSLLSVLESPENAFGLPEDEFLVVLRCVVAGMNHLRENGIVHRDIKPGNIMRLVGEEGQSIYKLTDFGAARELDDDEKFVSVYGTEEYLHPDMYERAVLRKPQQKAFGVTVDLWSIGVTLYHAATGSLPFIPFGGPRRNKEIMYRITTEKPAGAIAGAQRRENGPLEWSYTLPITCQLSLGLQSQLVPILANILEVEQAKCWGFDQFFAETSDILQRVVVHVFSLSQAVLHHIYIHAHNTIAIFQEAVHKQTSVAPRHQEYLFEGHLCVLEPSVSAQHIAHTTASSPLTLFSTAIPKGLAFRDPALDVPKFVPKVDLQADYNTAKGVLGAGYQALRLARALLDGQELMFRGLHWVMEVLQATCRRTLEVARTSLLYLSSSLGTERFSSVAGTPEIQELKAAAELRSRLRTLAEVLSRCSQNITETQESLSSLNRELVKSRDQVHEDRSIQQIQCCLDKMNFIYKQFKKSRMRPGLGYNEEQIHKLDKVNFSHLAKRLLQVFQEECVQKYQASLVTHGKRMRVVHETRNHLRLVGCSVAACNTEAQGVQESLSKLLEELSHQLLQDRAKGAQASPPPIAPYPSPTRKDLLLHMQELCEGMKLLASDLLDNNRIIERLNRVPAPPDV
How it was run: (§1)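 His-tagged Sf9-expressed kinases at 0.1 or 0.02 μg/ml (TBK1) and 0.1 or 0.015 μg/ml (IKKε) for normal and sensitized formats, with myelin basic protein or casein substrate. ATP was at 2×Km (60 μM TBK1, 32 μM IKKε) plus 0.3 μCi [γ33]ATP. Reactions ran 30-45 min, were captured on P-81 filters, and counts were normalized to DMSO.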

TBK1 = molecular target: T2, TBK1 (Homo sapiens, UniProt Q9UHD2); assay: In-vitro TBK1 kinase assay ([γ33]ATP filter-plate); format: biochemical
T2 construct: His-tag; made in house; host or cells: Sf9 insect cells
T2 sequence (Q9UHD2 1-729): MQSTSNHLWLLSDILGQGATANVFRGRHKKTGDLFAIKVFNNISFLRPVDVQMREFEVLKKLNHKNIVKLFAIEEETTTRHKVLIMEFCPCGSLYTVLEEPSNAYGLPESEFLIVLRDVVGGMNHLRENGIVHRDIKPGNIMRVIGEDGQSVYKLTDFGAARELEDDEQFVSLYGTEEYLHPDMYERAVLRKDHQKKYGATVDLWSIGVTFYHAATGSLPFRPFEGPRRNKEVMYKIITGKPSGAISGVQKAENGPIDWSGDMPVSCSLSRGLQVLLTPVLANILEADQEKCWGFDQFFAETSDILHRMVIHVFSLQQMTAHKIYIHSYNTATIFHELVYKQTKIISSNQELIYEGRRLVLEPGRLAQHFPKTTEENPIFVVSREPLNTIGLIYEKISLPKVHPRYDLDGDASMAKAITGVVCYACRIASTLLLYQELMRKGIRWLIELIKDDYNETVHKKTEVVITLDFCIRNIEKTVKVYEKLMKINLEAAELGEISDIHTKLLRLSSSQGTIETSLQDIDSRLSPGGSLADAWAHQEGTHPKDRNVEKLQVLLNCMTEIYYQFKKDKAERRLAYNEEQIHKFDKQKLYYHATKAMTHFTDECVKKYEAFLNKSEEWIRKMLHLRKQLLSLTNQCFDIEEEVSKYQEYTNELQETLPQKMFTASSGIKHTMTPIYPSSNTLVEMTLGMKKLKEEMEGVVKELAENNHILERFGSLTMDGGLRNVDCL
How it was run: as §1

[1] = tested on: IKKε-mediated phosphorylation of IRF3; assay: In-situ phosphorylation of IRF3 (pIRF3 Ser396 ELISA) in HEK293T cells cotransfected with IRF3 and IKKε; format: cell-based; settings: Homo sapiens, HEK-293T
How it was run: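 Cells for the IRF7 Western blots carried IRF7 and TBK1 plasmids, were seeded at 150,000/well, exposed to compound overnight and probed for pSer477/Ser479 IRF7. The ELISA readout used IRF3 + IKKε-cotransfected HEK293T at 20,000/well with 20 h treatment, quantifying pSer396 IRF3 relative to DMSO, plus a parallel CellTiter-Glo viability check.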

[2] = text bins, read-out: IC50 for inhibition of the kinase activity of IKKε
[3] = text bins, read-out: IC50 for inhibition of the kinase activity of TBK1
[4] = HEK293T cells, 20 hours, text bins, read-out: IC50 for inhibition of the in-situ IKKε-mediated phosphorylation of IRF3
[5] = HEK293T cells in culture, Table 3, read-out: pIRF3 ELISA IC50

| SMILES | IC50 (IKKε; [2]) | IC50 (TBK1; [3]) | IC50 [1, 4] | IC50 (IKKε; Table 3, read-out: IKKε IC50) | IC50 (TBK1; Table 3, read-out: TBK1 IC50) | IC50 [1, 5] |
| --- | --- | --- | --- | --- | --- | --- |
| COc1cc(Nc2nccc(-c3ccc(NC(=O)C(C)C)c(C#N)c3)n2)ccc1N1CCOCC1 [Example 75, N-[2-cyano-4-(2-{[3-methoxy-4-(morpholin-4-yl)phenyl]amino}pyrimidin-4-yl)phenyl]-2-methylpropanamide] | < 5 nM | < 10 nM | 250 to 500 nM |  |  |  |
| CN1CCC(NS(=O)(=O)c2ccc(Nc3nccc(-c4ccc(OC5CCOCC5)c(C#N)c4)n3)cc2)CC1 [compound 371, 4-({4-[3-cyano-4-(tetrahydro-2H-pyran-4-yloxy)phenyl]pyrimidin-2-yl}amino)-N-(1-methylpiperidin-4-yl)benzenesulfonamide] | < 5 nM | < 10 nM | 100 to 250 nM |  |  |  |
| COc1cc(Nc2nccc(-c3ccc(OC4CCN(C(=O)[C@H](C)O)CC4)c(C#N)c3)n2)ccc1N1CCOCC1 [Example 208, 2-({1-[(2S)-2-hydroxypropanoyl]piperidin-4-yl}oxy)-5-(2-{[3-methoxy-4-(morpholin-4-yl)phenyl]amino}pyrimidin-4-yl)benzonitrile] | < 5 nM | < 10 nM | 250 to 500 nM |  |  |  |
| COc1cc(-c2ccnc(Nc3ccc(N4CCOCC4)cc3)n2)cc(C#N)c1OC1CCN(C(=O)[C@@H](C)O)CC1 [compound 436, 2-({1-[(2R)-2-Hydroxypropanoyl]piperidin-4-yl}oxy)-3-methoxy-5-(2-{[4-(morpholin-4-yl)phenyl]amino}pyrimidin-4-yl)benzonitrile] | < 5 nM | < 10 nM | < 100 nM |  |  |  |
| CNS(=O)(=O)Cc1ccc(Nc2nccc(-c3ccc(OC4CCOCC4)c(C#N)c3)n2)cc1 [compound 413, 1-[4-({4-[3-cyano-4-(tetrahydro-2H-pyran-4-yloxy)phenyl]pyrimidin-2-yl}amino)phenyl]-N-methylmethane-sulfonamide] | < 5 nM | < 10 nM | < 100 nM |  |  |  |
| COCCNCc1ccc(Nc2nccc(-c3ccc(OCC(C)C)c(C#N)c3)n2)cc1 [compound 651] | < 5 nM | < 10 nM | < 100 nM |  |  |  |
| COc1cc(Nc2nccc(-c3ccc(OC4CCOCC4)c(C#N)c3)n2)ccc1CN1CC(O)C1 [compound 483, 5-[2-({4-[(3-Hydroxyazetidin-1-yl)methyl]-3-methoxyphenyl}amino)pyrimidin-4-yl]-2-(tetrahydro-2H-pyran-4-yloxy)benzonitrile] | 5 to 50 nM | < 10 nM | < 100 nM |  |  |  |
| N#Cc1cc(-c2ccnc(Nc3ccc(F)c(OCCN)c3)n2)ccc1OCC1CC1 [compound 612, 5-(2-{[3-(2-Aminoethoxy)-4-fluorophenyl]amino}pyrimidin-4-yl)-2-(cyclopropylmethoxy) benzonitrile] | < 5 nM | < 10 nM | 100 to 250 nM |  |  |  |
| COc1cc(Nc2nccc(-c3ccc(OC4CCOCC4)c(C#N)c3)n2)ccc1S(=O)(=O)N1CCN(C)CC1 [Example 114, 5-[2-({3-methoxy-4-[(4-methylpiperazin-1-yl)sulfonyl]phenyl}amino)pyrimidin-4-yl]-2-(tetrahydro-2H-pyran-4-yloxy)benzonitrile] | < 5 nM | < 10 nM | < 100 nM |  |  |  |
| COc1cc(Nc2nccc(-c3ccc(OC4CCOCC4)c(C#N)c3)n2)ccc1C(=O)N1CCN(CCO)CC1 [compound 476, 5-{2-[(4-{[4-(2-Hydroxyethyl)piperazin-1-yl]carbonyl}-3-methoxyphenyl)amino]pyrimidin-4-yl}-2-(tetrahydro-2H-pyran-4-yloxy)benzonitrile] | < 5 nM | < 10 nM | < 100 nM |  |  |  |
| CC(C)C(=O)Nc1ccc(-c2ccnc(Nc3ccc(CC(=O)N4CCN(C(C)C)CC4)cc3)n2)cc1C#N [compound 418, N-(2-cyano-4-{2-[(4-{2-oxo-2-[4-(propan-2-yl)piperazin-1-yl]ethyl}phenyl)amino]pyrimidin-4-yl}phenyl)-2-methylpropanamide] | 5 to 50 nM | < 10 nM | < 100 nM |  |  |  |
| COc1cc(Nc2nccc(-c3ccc(OC4CCOCC4)c(C#N)c3)n2)ccc1CN1CC(N2CCOCC2)C1 [compound 481, 5-{2-[(3-Methoxy-4-{[3-(morpholin-4-yl)azetidin-1-yl]methyl}phenyl)amino]pyrimidin-4-yl}-2-(tetrahydro-2H-pyran-4-yloxy)benzonitrile] | < 5 nM | < 10 nM | < 100 nM |  |  |  |
| N#Cc1cc(-c2ccnc(Nc3cccc(CS(=O)(=O)NCCO)c3)n2)ccc1OC1CCOCC1 [compound 619, 1-[3-({4-[3-Cyano-4-(tetrahydro-2H-pyran-4-yloxy)phenyl]pyrimidin-2-yl}amino)phenyl]-N-(2-hydroxyethyl) methanesulfonamide] | < 5 nM | < 10 nM | 250 to 500 nM | 1.2 nM | 0.2 nM | 287 nM |
| COc1cc(Nc2nccc(-c3ccc(OC4CCOCC4)c(C#N)c3)n2)ccc1OCCCS(=O)(=O)N1CCN(C)CC1 [Example 25, 5-{2-[(3-methoxy-4-{3-[(4-methylpiperazin-1-yl)sulfonyl]propoxy}phenyl)amino]pyrimidin-4-yl}-2-(tetrahydro-2H-pyran-4-yloxy)benzonitrile] | < 5 nM | < 10 nM | 100 to 250 nM |  |  |  |
| COc1cc(Nc2nccc(-c3ccc(OC4CCOCC4)c(C#N)c3)n2)ccc1C(=O)N1CCN(C)CC1 [compound 354, 5-[2-({3-methoxy-4-[(4-methylpiperazin-1-yl)carbonyl]phenyl}amino)pyrimidin-4-yl]-2-(tetrahydro-2H-pyran-4-yloxy)benzonitrile] | < 5 nM | < 10 nM | < 100 nM |  |  |  |
| N#Cc1cc(-c2ccnc(Nc3ccc(N4CCOCC4)cc3)n2)ccc1OCC1CCCN(C(=O)CO)C1 (stereo not drawn) [Example 219, 2-{[1-(hydroxyacetyl)piperidin-3-yl]methoxy}-5-(2-{[4-(morpholin-4-yl)phenyl]amino}pyrimidin-4-yl)benzonitrile] | 5 to 50 nM | < 10 nM | 100 to 250 nM |  |  |  |
| COc1cc(Nc2nccc(-c3ccc(OC4CCOCC4)c(C#N)c3)n2)ccc1OCCOCCNS(C)(=O)=O [Example 22] | < 5 nM | < 10 nM | < 100 nM |  |  |  |
| COc1cc(Nc2nccc(-c3ccc(OC4CCOCC4)c(C#N)c3)n2)ccc1C(=O)N1CCN2CCCC2C1 (stereo not drawn) [compound 501, 5-(2-{[4-(hexahydropyrrolo[1,2-a]pyrazin-2(1H)-ylcarbonyl)-3-methoxyphenyl]amino}pyrimidin-4-yl)-2-(tetrahydro-2H-pyran-4-yloxy)benzonitrile] | < 5 nM | < 10 nM | < 100 nM | 1.1 nM | 0.1 nM | 25.9 nM |
| N#Cc1cc(-c2ccnc(Nc3cccc(N4CCN(CCO)CC4)c3)n2)ccc1OC1CCOCC1 [compound 620, 5-[2-({3-[4-(2-Hydroxyethyl)piperazin-1-yl]phenyl}amino)pyrimidin-4-yl]-2-(tetrahydro-2H-pyran-4-yloxy)benzonitrile] | < 5 nM | < 10 nM | < 100 nM | 0.7 nM | 1.9 nM | 50.3 nM |
